In ChEMBL document CHEMBL3045835, “Comparative study of conventional and microwave-assisted synthesis of some Schiff bases and their potential as antimicrobial agents” (2012):
Values after ≈ are worked out from the molar mass of the structure shown.

Tests used:
Type in all cases: functional
Bacillus pumilus [1] = experiment: Antibacterial activity against Bacillus pumilus MTCC 1456 at 200 ug/ml after 18 hr by cup-plate method; settings: MTCC 1456, 18 h, read-out: DIZ
Pseudomonas aeruginosa [2] = experiment: Antibacterial activity against Pseudomonas aeruginosa MTCC 424 at 1000 ug/ml after 18 hr by cup-plate method; settings: MTCC 424, 18 h, read-out: DIZ
Micrococcus luteus [3] = experiment: Antibacterial activity against Micrococcus luteus MTCC 1538 at 500 ug/ml after 18 hr by cup-plate method; settings: MTCC 1538, 18 h, read-out: DIZ
Penicillium chrysogenum [4] = experiment: Antifungal activity against Penicillium chrysogenum MTCC 161 at 500 ug/ml after 18 hr by cup-plate method; settings: MTCC 161, 18 h, read-out: DIZ
Bacillus pumilus [5] = experiment: Antibacterial activity against Bacillus pumilus MTCC 1456 at 1000 ug/ml after 18 hr by cup-plate method; settings: MTCC 1456, 18 h, read-out: DIZ
Bacillus subtilis [6] = experiment: Antibacterial activity against Bacillus subtilis MTCC 441 at 1500 ug/ml after 18 hr by cup plate method; settings: MTCC 441, 18 h, read-out: DIZ
Bacillus subtilis [7] = experiment: Antibacterial activity against Bacillus subtilis MTCC 441 at 200 ug/ml after 18 hr by cup plate method; settings: MTCC 441, 18 h, read-out: DIZ
Staphylococcus aureus [8] = experiment: Antibacterial activity against Staphylococcus aureus MTCC 1430 at 1000 ug/ml after 18 hr by cup-plate method; settings: MTCC 1430, 18 h, read-out: DIZ
Pseudomonas fluorescens = experiment: Antibacterial activity against Pseudomonas fluorescens MTCC 2421 at 200 ug/ml after 18 hr by cup-plate method; settings: MTCC 2421, 18 h, read-out: DIZ
Penicillium chrysogenum [9] = experiment: Antifungal activity against Penicillium chrysogenum MTCC 161 at 1000 ug/ml after 18 hr by cup-plate method; settings: MTCC 161, 18 h, read-out: DIZ
Escherichia coli [10] = experiment: Antibacterial activity against Escherichia coli MTCC 1573 at 100 ug/ml after 18 hr by cup-plate method; settings: MTCC 1573, 18 h, read-out: DIZ
Penicillium chrysogenum [11] = experiment: Antifungal activity against Penicillium chrysogenum MTCC 161 after 24 hr by broth dilution method; settings: MTCC 161, 24 h
Escherichia coli [12] = experiment: Antibacterial activity against Escherichia coli MTCC 1573 after 24 hr by broth dilution method; settings: MTCC 1573, 24 h
Bacillus pumilus [13] = experiment: Antibacterial activity against Bacillus pumilus MTCC 1456 at 500 ug/ml after 18 hr by cup-plate method; settings: MTCC 1456, 18 h, read-out: DIZ
Penicillium chrysogenum [14] = experiment: Antifungal activity against Penicillium chrysogenum MTCC 161 at 100 ug/ml after 18 hr by cup-plate method; settings: MTCC 161, 18 h, read-out: DIZ
Micrococcus luteus [15] = experiment: Antibacterial activity against Micrococcus luteus MTCC 1538 after 24 hr by broth dilution method; settings: MTCC 1538, 24 h
Escherichia coli [16] = experiment: Antibacterial activity against Escherichia coli MTCC 1573 at 500 ug/ml after 18 hr by cup-plate method; settings: MTCC 1573, 18 h, read-out: DIZ
Escherichia coli [17] = experiment: Antibacterial activity against Escherichia coli MTCC 1573 at 1500 ug/ml after 18 hr by cup-plate method; settings: MTCC 1573, 18 h, read-out: DIZ
Aspergillus niger [18] = experiment: Antifungal activity against Aspergillus niger MTCC 2546 after 24 hr by broth dilution method; settings: MTCC 2546, 24 h
Staphylococcus aureus [19] = experiment: Antibacterial activity against Staphylococcus aureus MTCC 1430 at 1500 ug/ml after 18 hr by cup-plate method; settings: MTCC 1430, 18 h, read-out: DIZ
Pseudomonas aeruginosa [20] = experiment: Antibacterial activity against Pseudomonas aeruginosa MTCC 424 at 200 ug/ml after 18 hr by cup-plate method; settings: MTCC 424, 18 h, read-out: DIZ
Aspergillus niger [21] = experiment: Antifungal activity against Aspergillus niger MTCC 2546 at 1000 ug/ml after 18 hr by cup-plate method; settings: MTCC 2546, 18 h, read-out: DIZ
Penicillium chrysogenum [22] = experiment: Antifungal activity against Penicillium chrysogenum MTCC 161 at 200 ug/ml after 18 hr by cup-plate method; settings: MTCC 161, 18 h, read-out: DIZ
Aspergillus niger [23] = experiment: Antifungal activity against Aspergillus niger MTCC 2546 at 200 ug/ml after 18 hr by cup-plate method; settings: MTCC 2546, 18 h, read-out: DIZ
Micrococcus luteus [24] = experiment: Antibacterial activity against Micrococcus luteus MTCC 1538 at 1500 ug/ml after 18 hr by cup-plate method; settings: MTCC 1538, 18 h, read-out: DIZ
Aspergillus niger [25] = experiment: Antifungal activity against Aspergillus niger MTCC 2546 at 100 ug/ml after 18 hr by cup-plate method; settings: MTCC 2546, 18 h, read-out: DIZ
Escherichia coli [26] = experiment: Antibacterial activity against Escherichia coli MTCC 1573 at 1000 ug/ml after 18 hr by cup-plate method; settings: MTCC 1573, 18 h, read-out: DIZ

MIC (Penicillium chrysogenum [11]): 500 µg/mL (≈ 3080 µM)
MIC (Escherichia coli [12]): 400 µg/mL (≈ 2470 µM)
MIC (Micrococcus luteus [15]): 300 µg/mL (≈ 1850 µM)
MIC (Aspergillus niger [18]): 500 µg/mL (≈ 3080 µM)
Structure (SMILES): C(=N\c1nc[nH]n1)/c1ccco1
zone of inhibition at 200 µg/mL (Bacillus pumilus [1]): 15 mm
zone of inhibition at 1000 µg/mL (Pseudomonas aeruginosa [2]): 15 mm
zone of inhibition at 500 µg/mL (Micrococcus luteus [3]): 18 mm
zone of inhibition at 500 µg/mL (Penicillium chrysogenum [4]): 17 mm
zone of inhibition at 1000 µg/mL (Bacillus pumilus [5]): 17 mm
zone of inhibition at 1500 µg/mL (Bacillus subtilis [6]): 22 mm
zone of inhibition at 200 µg/mL (Bacillus subtilis [7]): 15 mm
zone of inhibition at 1000 µg/mL (Staphylococcus aureus [8]): 15 mm
zone of inhibition at 200 µg/mL (Pseudomonas fluorescens): 16 mm
zone of inhibition at 1000 µg/mL (Penicillium chrysogenum [9]): 18 mm
zone of inhibition at 100 µg/mL (Escherichia coli [10]): 10 mm
zone of inhibition at 500 µg/mL (Bacillus pumilus [13]): 16 mm
zone of inhibition at 100 µg/mL (Penicillium chrysogenum [14]): 11 mm
zone of inhibition at 500 µg/mL (Escherichia coli [16]): 14 mm
zone of inhibition at 1500 µg/mL (Escherichia coli [17]): 25 mm
zone of inhibition at 1500 µg/mL (Staphylococcus aureus [19]): 18 mm
zone of inhibition at 200 µg/mL (Pseudomonas aeruginosa [20]): 11 mm
zone of inhibition at 1000 µg/mL (Aspergillus niger [21]): 19 mm
zone of inhibition at 200 µg/mL (Penicillium chrysogenum [22]): 15 mm
zone of inhibition at 200 µg/mL (Aspergillus niger [23]): 16 mm
zone of inhibition at 1500 µg/mL (Micrococcus luteus [24]): 22 mm
zone of inhibition at 100 µg/mL (Aspergillus niger [25]): 11 mm
zone of inhibition at 1000 µg/mL (Escherichia coli [26]): 15 mm
